Measured values as given in PubChem BioAssay AID2060885 (Molecular Pharmacology Branch, DTP, NCI, 2025).

Test system: NCI-H23 complex spheroids with HUVEC/MSC, viability
Experiment: Anticancer human tumor NCI-H23 cell line growth inhibition [RAS];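 further: spheroids exposed to compound for 7 days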;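 on viability, T/C: 100% = DMSO vehicle control viability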
Settings: for IC50: curve of first compound; for viability, T/C: stronger effect = lower value
In short: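 Agents were tested in combination matrices in half-log decrements from a top concentration at or near clinical Cmax (10 microM if undetermined). Targets were multi-cell spheroids of tumour lines plus HUVEC and MSC stromal cells.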

[1] = second compound 0.00316 µM, first compound 0.0316 µM
[2] = second compound 0.00316 µM, first compound 0.1 µM
[3] = second compound 0.00316 µM, first compound 0.316 µM
[4] = second compound 0.00316 µM, first compound 1 µM
[5] = second compound 0.00316 µM, first compound 3.16 µM
[6] = second compound 0.00316 µM, first compound 10 µM
[7] = second compound 0.01 µM, first compound 0.0316 µM
[8] = second compound 0.01 µM, first compound 0.1 µM
[9] = second compound 0.01 µM, first compound 0.316 µM
[10] = second compound 0.01 µM, first compound 1 µM
[11] = second compound 0.01 µM, first compound 3.16 µM
[12] = second compound 0.01 µM, first compound 10 µM
[13] = second compound 0.0316 µM, first compound 0.0316 µM
[14] = second compound 0.0316 µM, first compound 0.1 µM
[15] = second compound 0.0316 µM, first compound 0.316 µM
[16] = second compound 0.0316 µM, first compound 1 µM
[17] = second compound 0.0316 µM, first compound 3.16 µM
[18] = second compound 0.0316 µM, first compound 10 µM
[19] = second compound 0.1 µM, first compound 0.0316 µM
[20] = second compound 0.1 µM, first compound 0.1 µM
[21] = second compound 0.1 µM, first compound 0.316 µM
[22] = second compound 0.1 µM, first compound 1 µM
[23] = second compound 0.1 µM, first compound 3.16 µM
[24] = second compound 0.1 µM, first compound 10 µM
[25] = second compound 0.316 µM, first compound 0.0316 µM
[26] = second compound 0.316 µM, first compound 0.1 µM
[27] = second compound 0.316 µM, first compound 0.316 µM
[28] = second compound 0.316 µM, first compound 1 µM
[29] = second compound 0.316 µM, first compound 3.16 µM
[30] = second compound 0.316 µM, first compound 10 µM
[31] = second compound 1 µM, first compound 0.0316 µM
[32] = second compound 1 µM, first compound 0.1 µM
[33] = second compound 1 µM, first compound 0.316 µM
[34] = second compound 1 µM, first compound 1 µM
[35] = second compound 1 µM, first compound 3.16 µM
[36] = second compound 1 µM, first compound 10 µM

Cc1nc(N2CCC3(CC2)COC(C)C3N)c(CO)nc1Sc1ccnc(N)c1Cl (stereo unspecified) + C=CC(=O)N1CCN(c2nc(OCC3CCCN3C)nc3c(F)c(-c4nc(N)cc(C)c4C(F)(F)F)c(Cl)cc23)C(C)C1
IC50 (second compound 0.00316 µM): < 31.6 nM | IC50 (second compound 0.01 µM): < 31.6 nM | IC50 (second compound 0.0316 µM): < 31.6 nM | IC50 (second compound 0.1 µM): < 31.6 nM | IC50 (second compound 0.316 µM): < 31.6 nM | IC50 (second compound 1 µM): < 31.6 nM | viability, T/C [1]: 47.4% | viability, T/C [2]: 48.5% | viability, T/C [3]: 32% | viability, T/C [4]: 27% | viability, T/C [5]: 31.7% | viability, T/C [6]: 25.4% | viability, T/C [7]: 44.3% | viability, T/C [8]: 42.3% | viability, T/C [9]: 26.7% | viability, T/C [10]: 28.5% | viability, T/C [11]: 22.6% | viability, T/C [12]: 16.4% | viability, T/C [13]: 36% | viability, T/C [14]: 33.6% | viability, T/C [15]: 24.7% | viability, T/C [16]: 26.7% | viability, T/C [17]: 21.1% | viability, T/C [18]: 20% | viability, T/C [19]: 37.2% | viability, T/C [20]: 35.5% | viability, T/C [21]: 25.8% | viability, T/C [22]: 23.9% | viability, T/C [23]: 19.7% | viability, T/C [24]: 17.2% | viability, T/C [25]: 31.1% | viability, T/C [26]: 31.6% | viability, T/C [27]: 30.2% | viability, T/C [28]: 23.2% | viability, T/C [29]: 23.3% | viability, T/C [30]: 17.5% | viability, T/C [31]: 36.6% | viability, T/C [32]: 32.8% | viability, T/C [33]: 26.6% | viability, T/C [34]: 18.6% | viability, T/C [35]: 22.7% | viability, T/C [36]: 17.9%

NC1c2ccccc2OC12CCN(c1cnc3c(N4CCCc5ncccc54)n[nH]c3n1)CC2 (stereo unspecified) + C=CC(=O)N1CCN(c2nc(OCC3CCCN3C)nc3c(F)c(-c4nc(N)cc(C)c4C(F)(F)F)c(Cl)cc23)C(C)C1
IC50 (second compound 0.00316 µM): < 31.6 nM | IC50 (second compound 0.01 µM): < 31.6 nM | IC50 (second compound 0.0316 µM): < 31.6 nM | IC50 (second compound 0.1 µM): < 31.6 nM | IC50 (second compound 0.316 µM): < 31.6 nM | IC50 (second compound 1 µM): < 31.6 nM | viability, T/C [1]: 36.1% | viability, T/C [2]: 31.4% | viability, T/C [3]: 23.7% | viability, T/C [4]: 20.7% | viability, T/C [5]: 17.5% | viability, T/C [6]: 12.2% | viability, T/C [7]: 32.9% | viability, T/C [8]: 29.2% | viability, T/C [9]: 18.9% | viability, T/C [10]: 16.9% | viability, T/C [11]: 11.4% | viability, T/C [12]: 10.4% | viability, T/C [13]: 27.9% | viability, T/C [14]: 25% | viability, T/C [15]: 18.2% | viability, T/C [16]: 13.6% | viability, T/C [17]: 11.8% | viability, T/C [18]: 10.1% | viability, T/C [19]: 25% | viability, T/C [20]: 21.6% | viability, T/C [21]: 17.8% | viability, T/C [22]: 14.8% | viability, T/C [23]: 11.8% | viability, T/C [24]: 8.71% | viability, T/C [25]: 23.1% | viability, T/C [26]: 23.4% | viability, T/C [27]: 19.4% | viability, T/C [28]: 14.8% | viability, T/C [29]: 12.2% | viability, T/C [30]: 11.7% | viability, T/C [31]: 26.8% | viability, T/C [32]: 24.6% | viability, T/C [33]: 20.1% | viability, T/C [34]: 13.1% | viability, T/C [35]: 12.8% | viability, T/C [36]: 11.2%

Nc1ccn(C2OC(CO)C(O)C2(F)F)c(=O)n1 (stereo unspecified) + C=CC(=O)N1CCN(c2nc(OCC3CCCN3C)nc3c(F)c(-c4nc(N)cc(C)c4C(F)(F)F)c(Cl)cc23)C(C)C1
IC50 (second compound 0.00316 µM): < 3.16 nM | IC50 (second compound 0.01 µM): < 3.16 nM | IC50 (second compound 0.0316 µM): < 3.16 nM | IC50 (second compound 0.1 µM): < 3.16 nM | IC50 (second compound 0.316 µM): < 3.16 nM | IC50 (second compound 1 µM): < 3.16 nM | viability, T/C (second compound 0.00316 µM, first compound 0.00316 µM): 29.9% | viability, T/C (second compound 0.00316 µM, first compound 0.01 µM): 4.17% | viability, T/C [1]: 1.98% | viability, T/C [2]: 2.04% | viability, T/C [3]: 2.83% | viability, T/C [4]: 2.41% | viability, T/C (second compound 0.01 µM, first compound 0.00316 µM): 34.3% | viability, T/C (second compound 0.01 µM, first compound 0.01 µM): 3.54% | viability, T/C [7]: 2.75% | viability, T/C [8]: 2.39% | viability, T/C [9]: 2.2% | viability, T/C [10]: 2.54% | viability, T/C (second compound 0.0316 µM, first compound 0.00316 µM): 24.9% | viability, T/C (second compound 0.0316 µM, first compound 0.01 µM): 3.04% | viability, T/C [13]: 2.2% | viability, T/C [14]: 2.3% | viability, T/C [15]: 2.25% | viability, T/C [16]: 3.18% | viability, T/C (second compound 0.1 µM, first compound 0.00316 µM): 20.2% | viability, T/C (second compound 0.1 µM, first compound 0.01 µM): 2.99% | viability, T/C [19]: 2.63% | viability, T/C [20]: 1.97% | viability, T/C [21]: 2.37% | viability, T/C [22]: 2.09% | viability, T/C (second compound 0.316 µM, first compound 0.00316 µM): 24.8% | viability, T/C (second compound 0.316 µM, first compound 0.01 µM): 3.77% | viability, T/C [25]: 2.05% | viability, T/C [26]: 1.47% | viability, T/C [27]: 2.4% | viability, T/C [28]: 2.12% | viability, T/C (second compound 1 µM, first compound 0.00316 µM): 21.4% | viability, T/C (second compound 1 µM, first compound 0.01 µM): 4.48% | viability, T/C [31]: 3.25% | viability, T/C [32]: 2.34% | viability, T/C [33]: 2.71% | viability, T/C [34]: 2.67%
